# Species: Rattus norvegicus
# Test: Open TG-GATES - Regimen: Daily Repeat
# Format: toxicity, organism-based, Sprague-Dawley
# Set-up: regimen Daily Repeat, gender Male, age 6 weeks
# Conditions: in vivo, po, 0 mg/kg, route gavage, dose level Control; for APTT / Bas / Eos / Fbg / Hb / Ht / Lym / MCH / MCHC / MCV / Mono / Neu / PT / Plat / RBC / Ret / WBC: tissue Blood; for KIDNEY_L / KIDNEY_R / KIDNEY_TOTAL: tissue Kidney; for LIVER: tissue Liver; for ALP / ALT / AST / BUN / CRE / DBIL / GLC / IP / K / LDH / Na / PL / RALB / TBIL / TC / TG / TP / gamma-GTP: tissue Plasma
structure (smiles),measurement,setting,value
CC(CCc1ccccc1)NCC(O)c1ccc(O)c(C(N)=O)c1 (stereo not drawn) [LABETALOL],TERMINAL_BW,"72 h, time 3 day",252.2 g
same,APTT,"72 h, time 3 day",16.5 s
same,Bas,"72 h, time 3 day",0%
same,Eos,"72 h, time 3 day",1%
same,Fbg,"72 h, time 3 day",295.4 mg/dL
same,Hb,"72 h, time 3 day",13.4 g/dL
same,Ht,"72 h, time 3 day",38.9%
same,Lym,"72 h, time 3 day",75.4%
same,MCH,"72 h, time 3 day",21.3 pg
same,MCHC,"72 h, time 3 day",34.3%
same,MCV,"72 h, time 3 day",62.2 fL
same,Mono,"72 h, time 3 day",3.6%
same,Neu,"72 h, time 3 day",19.6%
same,PT,"72 h, time 3 day",12.8 s
same,Plat,"72 h, time 3 day",116.3 x10_4/uL
same,RBC,"72 h, time 3 day",627 x10_4/ul
same,Ret,"72 h, time 3 day",6.4%
same,WBC,"72 h, time 3 day",105.6 x10_2/uL
same,KIDNEY_L,"72 h, time 3 day",1.1 g
same,KIDNEY_R,"72 h, time 3 day",1.1 g
same,KIDNEY_TOTAL,"72 h, time 3 day",2.2 g
same,LIVER,"72 h, time 3 day",12.1 g
same,ALP,"72 h, time 3 day",1730.4 IU/L
same,ALT,"72 h, time 3 day",44.2 IU/L
same,AST,"72 h, time 3 day",70 IU/L
same,BUN,"72 h, time 3 day",15.4 mg/dL
same,CRE,"72 h, time 3 day",0.2 mg/dL
same,DBIL,"72 h, time 3 day",0.014 mg/dL
same,GLC,"72 h, time 3 day",190.6 mg/dL
same,IP,"72 h, time 3 day",7.8 mg/dL
same,K,"72 h, time 3 day",4 meq/L
same,LDH,"72 h, time 3 day",60.6 IU/L
same,Na,"72 h, time 3 day",143.4 meq/L
same,PL,"72 h, time 3 day",158 mg/dL
same,RALB,"72 h, time 3 day",2.7 g/dL
same,TBIL,"72 h, time 3 day",0.032 mg/dL
same,TC,"72 h, time 3 day",85.6 mg/dL
same,TG,"72 h, time 3 day",111.4 mg/dL
same,TP,"72 h, time 3 day",5.8 g/dL
same,gamma-GTP,"72 h, time 3 day",1 IU/L
same,TERMINAL_BW,"[…], time 7 day",289.5 g
same,TERMINAL_BW,"[…], time 14 day",341.4 g
same,TERMINAL_BW,"[…], time 28 day",418.9 g
same,APTT,"[…], time 7 day",17.2 s
same,Bas,"[…], time 7 day",0%
same,Eos,"[…], time 7 day",0.8%
same,Fbg,"[…], time 7 day",319.2 mg/dL
same,Hb,"[…], time 7 day",13.6 g/dL
same,Ht,"[…], time 7 day",38.7%
same,Lym,"[…], time 7 day",78.2%
same,MCH,"[…], time 7 day",21.4 pg
same,MCHC,"[…], time 7 day",35.1%
same,MCV,"[…], time 7 day",61 fL
same,Mono,"[…], time 7 day",3%
same,Neu,"[…], time 7 day",16.8%
same,PT,"[…], time 7 day",12.5 s
same,Plat,"[…], time 7 day",117.8 x10_4/uL
same,RBC,"[…], time 7 day",635.2 x10_4/ul
same,Ret,"[…], time 7 day",6%
same,WBC,"[…], time 7 day",108.5 x10_2/uL
same,APTT,"[…], time 14 day",17.8 s
same,Bas,"[…], time 14 day",0.2%
same,Eos,"[…], time 14 day",1%
same,Fbg,"[…], time 14 day",271.4 mg/dL
same,Hb,"[…], time 14 day",14.6 g/dL
same,Ht,"[…], time 14 day",42.4%
same,Lym,"[…], time 14 day",71.8%
same,MCH,"[…], time 14 day",21.1 pg
same,MCHC,"[…], time 14 day",34.4%
same,MCV,"[…], time 14 day",61.5 fL
same,Mono,"[…], time 14 day",2.8%
same,Neu,"[…], time 14 day",23.8%
same,PT,"[…], time 14 day",12.8 s
same,Plat,"[…], time 14 day",104.1 x10_4/uL
same,RBC,"[…], time 14 day",689 x10_4/ul
same,Ret,"[…], time 14 day",4.5%
same,WBC,"[…], time 14 day",82.7 x10_2/uL
same,APTT,"[…], time 28 day",18.5 s
same,Bas,"[…], time 28 day",0.6%
same,Eos,"[…], time 28 day",1.2%
same,Fbg,"[…], time 28 day",289 mg/dL
same,Hb,"[…], time 28 day",15.1 g/dL
same,Ht,"[…], time 28 day",43.5%
same,Lym,"[…], time 28 day",76.2%
same,MCH,"[…], time 28 day",20.2 pg
same,MCHC,"[…], time 28 day",34.8%
same,MCV,"[…], time 28 day",58.3 fL
same,Mono,"[…], time 28 day",3.2%
same,Neu,"[…], time 28 day",18.4%
same,PT,"[…], time 28 day",12.9 s
same,Plat,"[…], time 28 day",98.3 x10_4/uL
same,RBC,"[…], time 28 day",748.2 x10_4/ul
same,Ret,"[…], time 28 day",2.5%
same,WBC,"[…], time 28 day",98.7 x10_2/uL
same,KIDNEY_L,"[…], time 7 day",1.2 g
same,KIDNEY_R,"[…], time 7 day",1.2 g
same,KIDNEY_TOTAL,"[…], time 7 day",2.5 g
same,KIDNEY_L,"[…], time 14 day",1.3 g
same,KIDNEY_R,"[…], time 14 day",1.2 g
same,KIDNEY_TOTAL,"[…], time 14 day",2.4 g
same,KIDNEY_L,"[…], time 28 day",1.4 g
same,KIDNEY_R,"[…], time 28 day",1.4 g
same,KIDNEY_TOTAL,"[…], time 28 day",2.9 g
same,LIVER,"[…], time 7 day",13.1 g
same,LIVER,"[…], time 14 day",13.9 g
same,LIVER,"[…], time 28 day",16.1 g
same,ALP,"[…], time 7 day",1548.4 IU/L
same,ALT,"[…], time 7 day",43.4 IU/L
same,AST,"[…], time 7 day",69.8 IU/L
same,BUN,"[…], time 7 day",14.2 mg/dL
same,CRE,"[…], time 7 day",0.2 mg/dL
same,DBIL,"[…], time 7 day",0.012 mg/dL
same,GLC,"[…], time 7 day",188.4 mg/dL
same,IP,"[…], time 7 day",7.8 mg/dL
same,K,"[…], time 7 day",3.8 meq/L
same,LDH,"[…], time 7 day",64.6 IU/L
same,Na,"[…], time 7 day",143.2 meq/L
same,PL,"[…], time 7 day",149.2 mg/dL
same,RALB,"[…], time 7 day",2.7 g/dL
same,TBIL,"[…], time 7 day",0.034 mg/dL
same,TC,"[…], time 7 day",85.4 mg/dL
same,TG,"[…], time 7 day",86.8 mg/dL
same,TP,"[…], time 7 day",5.8 g/dL
same,gamma-GTP,"[…], time 7 day",1 IU/L
same,ALP,"[…], time 14 day",1377.6 IU/L
same,ALT,"[…], time 14 day",45.8 IU/L
same,AST,"[…], time 14 day",72.4 IU/L
same,BUN,"[…], time 14 day",15.2 mg/dL
same,CRE,"[…], time 14 day",0.2 mg/dL
same,DBIL,"[…], time 14 day",0.014 mg/dL
same,GLC,"[…], time 14 day",197 mg/dL
same,IP,"[…], time 14 day",6.9 mg/dL
same,K,"[…], time 14 day",3.7 meq/L
same,LDH,"[…], time 14 day",79.4 IU/L
same,Na,"[…], time 14 day",144.6 meq/L
same,PL,"[…], time 14 day",146.8 mg/dL
same,RALB,"[…], time 14 day",2.8 g/dL
same,TBIL,"[…], time 14 day",0.024 mg/dL
same,TC,"[…], time 14 day",74 mg/dL
same,TG,"[…], time 14 day",120.8 mg/dL
same,TP,"[…], time 14 day",6.2 g/dL
same,gamma-GTP,"[…], time 14 day",1 IU/L
same,ALP,"[…], time 28 day",1192 IU/L
same,ALT,"[…], time 28 day",43.2 IU/L
same,AST,"[…], time 28 day",67 IU/L
same,BUN,"[…], time 28 day",17 mg/dL
same,CRE,"[…], time 28 day",0.2 mg/dL
same,DBIL,"[…], time 28 day",0.022 mg/dL
same,GLC,"[…], time 28 day",199 mg/dL
same,IP,"[…], time 28 day",6.5 mg/dL
same,K,"[…], time 28 day",3.6 meq/L
same,LDH,"[…], time 28 day",63.8 IU/L
same,Na,"[…], time 28 day",142.4 meq/L
same,PL,"[…], time 28 day",151.2 mg/dL
same,RALB,"[…], time 28 day",2.8 g/dL
same,TBIL,"[…], time 28 day",0.036 mg/dL
same,TC,"[…], time 28 day",77.6 mg/dL
same,TG,"[…], time 28 day",143.2 mg/dL
